Data from patent publication US9326986B2, “Quinazolinone, quinolone and related analogs as sirtuin modulators” (GLAXOSMITHKLINE LLC, priority 2008, dated 2016).

Molecular target: T1, SIRT1 (Homo sapiens, UniProt Q96EB6)
T1 sequence (Q96EB6 1-747): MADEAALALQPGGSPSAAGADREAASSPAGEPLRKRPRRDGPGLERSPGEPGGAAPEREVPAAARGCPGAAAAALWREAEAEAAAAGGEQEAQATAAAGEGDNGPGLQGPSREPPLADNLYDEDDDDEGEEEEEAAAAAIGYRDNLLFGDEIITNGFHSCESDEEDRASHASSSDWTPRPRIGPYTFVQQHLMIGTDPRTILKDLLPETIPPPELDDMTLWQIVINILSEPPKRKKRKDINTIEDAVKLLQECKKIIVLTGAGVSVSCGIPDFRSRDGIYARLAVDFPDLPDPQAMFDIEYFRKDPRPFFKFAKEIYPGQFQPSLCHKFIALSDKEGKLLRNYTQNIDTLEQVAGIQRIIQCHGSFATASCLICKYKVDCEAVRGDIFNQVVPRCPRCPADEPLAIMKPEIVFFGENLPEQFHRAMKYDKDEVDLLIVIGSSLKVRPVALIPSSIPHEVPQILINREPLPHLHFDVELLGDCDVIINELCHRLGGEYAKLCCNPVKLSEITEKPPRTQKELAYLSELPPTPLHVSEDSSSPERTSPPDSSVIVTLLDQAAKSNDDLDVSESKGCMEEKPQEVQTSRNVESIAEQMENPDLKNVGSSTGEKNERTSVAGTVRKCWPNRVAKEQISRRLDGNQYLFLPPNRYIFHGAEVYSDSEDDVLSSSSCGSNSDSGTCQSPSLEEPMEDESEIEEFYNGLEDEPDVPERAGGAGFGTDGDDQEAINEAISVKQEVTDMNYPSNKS
Test: Mass spectrometry based assay to identify modulators of SIRT1 activity (deacetylation of p53-based acetylated peptide)
Assay type: biochemical
Settings: 10 nM SIRT1, 0.5 μM peptide substrate, 120 μM βNAD+, 25 minutes at 25° C.; for EC1.5 μM: SIRT1 activation

% Fold Act. (percent maximum fold activation) | EC1.5 μM | Structure (SMILES)
B (Fold Activation<200%) | B (EC1.5 1-25 μM) | Cn1c(-c2cccc(C(F)(F)F)c2)nc2c(NC(=O)c3ccncc3)cccc2c1=O [Compound 237]
B (Fold Activation<200%) | B (EC1.5 1-25 μM) | Cn1c(-c2cccc(OC(F)(F)F)c2)nc2c(C(=O)Nc3nccs3)cccc2c1=O [Compound 200]
A (Fold activation>200%) | B (EC1.5 1-25 μM) | O=C(Nc1cccc2c(=O)cc(-c3cccc(C(F)(F)F)c3)[nH]c12)c1cncnc1 [Compound 421]
A (Fold activation>200%) | A (EC1.5<1.0 μM) | O=C(Nc1nccs1)c1cccc2c(=O)cc(-c3cccc(OC(F)(F)F)c3)[nH]c12 [Compound 429]
A (Fold activation>200%) | B (EC1.5 1-25 μM) | Cn1c(-c2cccc(S(C)(=O)=O)c2)nc2c(C(=O)Nc3ccccn3)cccc2c1=O [Compound 222]
A (Fold activation>200%) | B (EC1.5 1-25 μM) | O=C(Nc1cccc2c(=O)n(CCN3CCCC3)c(-c3cccc(C(F)(F)F)c3)nc12)c1cnccn1 [Compound 235]
A (Fold activation>200%) | A (EC1.5<1.0 μM) | Cn1c(-c2cccc(C(F)(F)F)c2)nc2c(NC(=O)c3cnccn3)cccc2c1=O [Compound 202]
A (Fold activation>200%) | B (EC1.5 1-25 μM) | Cn1c(-c2cccc(C(F)(F)F)c2)nc2c(C(=O)Nc3ncc(CN4CCOCC4)s3)cccc2c1=O [Compound 308]
B (Fold Activation<200%) | C (EC1.5>25 μM) | Cn1c(-c2ccncn2)nc2c(NC(=O)c3cnccn3)cccc2c1=O [Compound 280]
A (Fold activation>200%) | A (EC1.5<1.0 μM) | Cn1c(-c2cccc(C(F)(F)F)c2)nc2c(C(=O)Nc3cncc(OCC(O)CO)n3)cccc2c1=O (centres unmarked) [Compound 354]
A (Fold activation>200%) | A (EC1.5<1.0 μM) | Cn1c(-c2cccc(C(F)(F)F)c2)nc2c(C(=O)Nc3cccc(OC[C@@H](O)CO)n3)cccc2c1=O [Compound 356]
A (Fold activation>200%) | B (EC1.5 1-25 μM) | Cn1c(-c2cccc(N3CCOCC3)c2)nc2c(C(=O)Nc3ccccn3)cccc2c1=O [Compound 209]
B (Fold Activation<200%) | C (EC1.5>25 μM) | Cn1c(-c2cccc(OC(F)(F)F)c2)nc2c(NC(=O)c3cscn3)cccc2c1=O [Compound 203]
B (Fold Activation<200%) | C (EC1.5>25 μM) | Cn1c(-c2ccncc2)nc2c(C(=O)Nc3ccccn3)cccc2c1=O [Compound 223]
B (Fold Activation<200%) | C (EC1.5>25 μM) | Cn1cnc(-c2nc3c(C(=O)Nc4ccccn4)cccc3c(=O)n2C)c1 [Compound 261]
B (Fold Activation<200%) | C (EC1.5>25 μM) | Cn1c(-c2ccccn2)nc2c(C(=O)Nc3ccccn3)cccc2c1=O [Compound 255]
A (Fold activation>200%) | A (EC1.5<1.0 μM) | Cn1c(-c2cccc(C(F)(F)F)c2)nc2c(NC(=O)c3cccc(N4CCOCC4)n3)cccc2c1=O [Compound 341]
A (Fold activation>200%) | A (EC1.5<1.0 μM) | O=C(Nc1cnccn1)c1cccc2c(=O)cc(-c3cccc(OC(F)(F)F)c3)[nH]c12 [Compound 442]
B (Fold Activation<200%) | C (EC1.5>25 μM) | Cn1c(-c2ccc(S(C)(=O)=O)cc2)nc2c(C(=O)Nc3ccccn3)cccc2c1=O [Compound 215]
A (Fold activation>200%) | A (EC1.5<1.0 μM) | Cn1c(-c2cccc(C(F)(F)F)c2)nc2c(C(=O)Nc3nnc(C(C)(C)C)s3)cccc2c1=O [Compound 297]
A (Fold activation>200%) | A (EC1.5<1.0 μM) | O=C(Nc1ccccn1)c1cccc2c(=O)cc(-c3cccc(C(F)(F)F)c3)[nH]c12 [Compound 401, 4-oxo-N-(pyridin-2-yl)-2-(3-(trifluoromethyl)phenyl)-1,4-dihydroquinoline-8-carboxamide]
B (Fold Activation<200%) | C (EC1.5>25 μM) | CN1CCCCC1C(=O)Nc1cccc2c(=O)n(C)c(-c3cccc(C(F)(F)F)c3)nc12 (centres unmarked) [Compound 343]
A (Fold activation>200%) | A (EC1.5<1.0 μM) | Cn1nccc1C(=O)Nc1cccc2c(=O)n(C)c(-c3cccc(C(F)(F)F)c3)nc12 [Compound 248]

The remaining lines, values behind:

Structure (SMILES) | % Fold Act. (percent maximum fold activation) | EC1.5 μM
Cn1c(-c2ccccc2OC(F)(F)F)nc2c(NC(=O)c3cnccn3)cccc2c1=O [Compound 274] | A (Fold activation>200%) | A (EC1.5<1.0 μM)
O=C(Nc1nccs1)c1cccc2c(=O)cc(-c3cccc(C(F)(F)F)c3)[nH]c12 [Compound 404] | A (Fold activation>200%) | A (EC1.5<1.0 μM)
Cn1ccnc1-c1nc2c(NC(=O)c3cnccn3)cccc2c(=O)n1C [Compound 289] | B (Fold Activation<200%) | C (EC1.5>25 μM)
Cn1ccc(-c2nc3c(NC(=O)c4cnccn4)cccc3c(=O)n2C)n1 [Compound 290] | B (Fold Activation<200%) | C (EC1.5>25 μM)
Cn1c(-c2cccc(C(F)(F)F)c2)nc2c(C(=O)Nc3ccnc(N4CCCC4)c3)cccc2c1=O [Compound 349] | A (Fold activation>200%) | A (EC1.5<1.0 μM)
Cn1cncc1-c1nc2c(NC(=O)c3cnccn3)cccc2c(=O)n1C [Compound 285] | B (Fold Activation<200%) | B (EC1.5 1-25 μM)
O=C(Nc1cccc2c(=O)[nH]c(-c3cccc(C(F)(F)F)c3)nc12)c1cnccn1 [Compound 231] | B (Fold Activation<200%) | C (EC1.5>25 μM)
O=C(Nc1ccccn1)c1cccc2c(=O)[nH]c(-c3cccc(OC(F)F)c3)nc12 [Compound 325] | B (Fold Activation<200%) | C (EC1.5>25 μM)
Cn1c(-c2cccc(C(F)(F)F)c2)nc2c(C(=O)Nc3ccncn3)cccc2c1=O [Compound 303] | A (Fold activation>200%) | B (EC1.5 1-25 μM)
Cn1c(-c2ccccc2C(F)F)nc2c(C(=O)Nc3ccccn3)cccc2c1=O [Compound 322] | A (Fold activation>200%) | B (EC1.5 1-25 μM)
O=C(Nc1cccc2c(=O)cc(-c3cccc(C(F)(F)F)c3)[nH]c12)c1cccc(F)n1 [Compound 424] | A (Fold activation>200%) | A (EC1.5<1.0 μM)
Cn1c(-c2cccc(C(F)(F)F)c2)nc2c(C(=O)Nc3ccccn3)cccc2c1=O [Compound 206] | A (Fold activation>200%) | A (EC1.5<1.0 μM)
Cn1c(-c2cccc(C(F)(F)F)c2)nc2c(C(=O)Nc3ccnc(OCC(O)CO)n3)cccc2c1=O (centres unmarked) [Compound 355] | A (Fold activation>200%) | A (EC1.5<1.0 μM)
O=C(Nc1cccnc1)c1cccc2c(=O)cc(-c3ccccc3Cl)[nH]c12 [Compound 441] | A (Fold activation>200%) | B (EC1.5 1-25 μM)
Cn1c(C2CCCC2)nc2c(C(=O)Nc3ccccn3)cccc2c1=O [Compound 214] | B (Fold Activation<200%) | C (EC1.5>25 μM)
Cn1c(-c2ccccc2OC(F)(F)F)nc2c(C(=O)Nc3ccccn3)cccc2c1=O [Compound 213] | A (Fold activation>200%) | B (EC1.5 1-25 μM)
Cn1c(-c2cccc(C(F)(F)F)c2)nc2c(C(=O)Nc3ccnc(CN4CCOCC4)n3)cccc2c1=O [Compound 307] | A (Fold activation>200%) | B (EC1.5 1-25 μM)
O=C(Nc1cccc2c(=O)cc(-c3cccc(C(F)(F)F)c3)[nH]c12)c1cncs1 [Compound 416] | A (Fold activation>200%) | A (EC1.5<1.0 μM)
Cn1c(-c2cccc(C(F)(F)F)c2)nc2c(NC(=O)c3cncs3)cccc2c1=O [Compound 229] | B (Fold Activation<200%) | B (EC1.5 1-25 μM)
Cn1c(-c2cccc(C(F)(F)F)c2)nc2c(C(=O)Nc3cccc(CN4CC[C@@H](F)C4)n3)cccc2c1=O [Compound 345] | A (Fold activation>200%) | A (EC1.5<1.0 μM)
